Measured values published in US8853246B2 (Dow AgroSciences LLC, priority 2009, dated 2014).

Assays:
[1] = test system: Sweetpotato Whitefly-Crawler (Bemisia Tabaci); test: Insecticidal test for sweetpotato whitefly-crawler in foliar spray assay (col. BEMITA); assay type: in vivo; conditions: sweetpotato whitefly-crawler; for pest or weed control at 200 ppm: Bemisia tabaci, read-out: BEMITA 200 ppm (Corrected % Control, rating)
Method in brief: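 Percent control, Abbott-corrected against diluent-sprayed plants, from microscope counts of live nymphs 8-9 days after treatment. Test solution at 200 ppm in 0.025% aqueous Tween 20 applied to both leaf sides of egg-infested cotton after a 5-6 day hatch period (82° F, 50% RH).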

[2] = test system: Green Peach Aphid (Myzus Persicae); test: Insecticidal test for green peach aphid in foliar spray assay (col. MYZUPE); assay type: in vivo; conditions: green peach aphid; for pest or weed control at 200 ppm: Myzus persicae, 72 h, read-out: MYZUPE 200 ppm (Corrected % Control, rating)
Method in brief: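 Corrected % control derives from microscope counts of live aphids per plant, treated against diluent-only checks, 3 days after foliar spraying at ~25 °C and 40% RH. Test solution was 200 ppm in 0.025% aqueous Tween 20, applied to both leaf sides of infested cabbage seedlings, four pots each.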

| SMILES | pest or weed control at 200 ppm [1] | pest or weed control at 200 ppm [2] | BEMITA 200 ppm (Corrected % Control, rating) [1] | MYZUPE 200 ppm (Corrected % Control, rating) [2] |
| --- | --- | --- | --- | --- |
| CSCC[C@H](NC(=O)OC(C)(C)C)C(=O)N(C)c1sc(-c2cccnc2)nc1C [Compound 281] | < 80% | < 80% | – | – |
| Cc1nc(-c2cccnc2)sc1N(C)C(=O)C(C)NC(=O)OC(C)(C)C (stereo not drawn) [Compound 282] | 80 to 100% | 80 to 100% | – | – |
| Cc1nc(-c2cccnc2)sc1N(C)C(=O)C(CC(C)C)NC(=O)OC(C)(C)C (stereo not drawn) [Compound 283] | < 80% | < 80% | – | – |
| CCCN(C(=O)OC(C)(C)C)c1sc(-c2cccnc2)nc1C [Compound 284] | 80 to 100% | 80 to 100% | – | – |
| Cc1nc(-c2cncc(F)c2)sc1N(C)C(=O)CC(C)[S+](C)[O-] (stereo not drawn) [Compound 285] | 80 to 100% | 80 to 100% | – | – |
| CCCN(C(=O)C(C)CSC)c1sc(-c2cccnc2)nc1C (stereo not drawn) [Compound 286] | 80 to 100% | 80 to 100% | – | – |
| Cc1nc(-c2cccnc2)sc1N(C)C(=O)[C@H](CSCc1ccccc1)NC(=O)OC(C)(C)C [Compound 290] | < 80% | < 80% | – | – |
| Cc1nc(-c2cccnc2)sc1N(C)C(=O)C(CCCCNC(=O)OCc1ccccc1)NC(=O)OC(C)(C)C (stereo not drawn) [Compound 291] | < 80% | < 80% | – | – |
| Cc1nc(-c2cccnc2)sc1N(C)C(=O)[C@@H]1CCCN1C(=O)OC(C)(C)C [Compound 292] | 80 to 100% | < 80% | – | – |
| Cc1nc(-c2cccnc2)sc1N(C)C(=O)C(NC(=O)OC(C)(C)C)C(C)OCc1ccccc1 (stereo not drawn) [Compound 293] | < 80% | 80 to 100% | – | – |
| Cc1nc(-c2cccnc2)sc1N(C)C(=O)C(C)N(C)C(=O)OC(C)(C)C (stereo not drawn) [Compound 294] | < 80% | < 80% | – | – |
| CNC(C)C(=O)N(C)c1sc(-c2cccnc2)nc1C (stereo not drawn) [Compound 295] | 80 to 100% | < 80% | – | – |
| CSCC(C)C(=O)Nc1sc(-c2cncc(F)c2)nc1Br (stereo not drawn) [Compound 299] | 80 to 100% | 80 to 100% | – | – |
| CCN(C(=O)CC(C)SC)c1sc(-c2cncc(F)c2)nc1C (stereo not drawn) [Compound 300] | < 80% | 80 to 100% | – | – |
| Cc1nc(-c2cccnc2)sc1N(CCF)C(=O)OC(C)(C)C [Compound 301] | 80 to 100% | 80 to 100% | – | – |
| COCC(C)(C)OC(=O)N(C)c1sc(-c2cccnc2)nc1C [Compound 302] | 80 to 100% | < 80% | – | – |
| CCN(C(=O)OC(C)(C)C)c1sc(-c2cncc(F)c2)nc1Br [Compound 303] | 80 to 100% | < 80% | – | – |
| CCN(C(=O)OC(C)(C)C)c1sc(-c2cccnc2)nc1Cl [Compound 304, (4-chloro-2-pyridin-3-yl-thiazol-5-yl)-ethyl-carbamic Acid Tert-Butyl Ester] | 80 to 100% | 80 to 100% | – | – |
| CC[C@H](NC(=O)OC(C)(C)C)C(=O)N(C)c1sc(-c2cccnc2)nc1C [Compound 312] | 80 to 100% | 80 to 100% | – | – |

| SMILES | pest or weed control at 200 ppm [1] | pest or weed control at 200 ppm [2] | BEMITA 200 ppm (Corrected % Control, rating) [1] | MYZUPE 200 ppm (Corrected % Control, rating) [2] |
| --- | --- | --- | --- | --- |
| CCN(C(=O)CCSC)c1sc(-c2cccnc2)nc1Cl [Compound 313, N-(4-chloro-2-pyridin-3-yl-thiazol-5-yl)-N-ethyl-3-methylsulfanyl-propionamide] | 80 to 100% | 80 to 100% | – | – |
| CCN(C(=O)CC[S+](C)[O-])c1sc(-c2cccnc2)nc1Cl (stereo not drawn) [Compound 314] | 80 to 100% | 80 to 100% | – | – |
| CCN(C(=O)CCS(C)(=O)=O)c1sc(-c2cccnc2)nc1Cl [Compound 315] | 80 to 100% | 80 to 100% | – | – |
| CCSCCC(=O)N(CC)c1sc(-c2cncc(F)c2)nc1C [Compound 319] | 80 to 100% | 80 to 100% | – | – |
| CCN(C(=O)CCSCc1ccccc1)c1sc(-c2cccnc2)nc1C [Compound 320] | < 80% | 80 to 100% | – | – |
| CCN(C(=O)CCSc1ccccc1)c1sc(-c2cccnc2)nc1C [Compound 321] | < 80% | 80 to 100% | – | – |
| CCSCCC(=O)N(CC)c1sc(-c2cccnc2)nc1C [Compound 322] | < 80% | 80 to 100% | – | – |
| CCN(C(=O)CCSC(C)C)c1sc(-c2cccnc2)nc1C [Compound 323] | < 80% | 80 to 100% | – | – |
| CCN(C(=O)CC(C)SC)c1sc(-c2cccnc2)nc1Cl (stereo not drawn) [Compound 324] | < 80% | 80 to 100% | – | – |
| Cc1nc(-c2cccnc2)sc1NC(=O)C1=CC(=O)CC(C)(C)O1 [Compound 326] | < 80% | < 80% | – | – |
| Cc1nc(-c2cccnc2)sc1N(C)C(=O)C1=CC(=O)CC(C)(C)O1 [Compound 327] | < 80% | < 80% | – | – |
| CN(C(=O)C1=CC(=O)CC(C)(C)O1)c1sc(-c2cccnc2)nc1Cl [Compound 328] | < 80% | < 80% | – | – |
| CSCC(Cc1ccccc1)C(=O)Nc1sc(-c2cccnc2)nc1C (stereo not drawn) [Compound 329] | < 80% | < 80% | – | – |
| CSCC(Cc1ccccc1)C(=O)N(C)c1sc(-c2cccnc2)nc1C (stereo not drawn) [Compound 330] | < 80% | < 80% | – | – |
| CSCC(Cc1ccccc1)C(=O)N(C)c1sc(-c2cccnc2)nc1Cl (stereo not drawn) [Compound 331] | 80 to 100% | < 80% | – | – |
| Cc1nc(C)n(CC(C)C(=O)Nc2sc(-c3cccnc3)nc2C)n1 (stereo not drawn) [Compound 332] | < 80% | 80 to 100% | – | – |
| Cc1nc(C)n(CC(C)C(=O)N(C)c2sc(-c3cccnc3)nc2Cl)n1 (stereo not drawn) [Compound 333] | – | – | B (Less than 80) | A (80-100) |
| CC(=O)OC(C)C(=O)Nc1sc(-c2cccnc2)nc1C (stereo not drawn) [Compound 334] | < 80% | 80 to 100% | – | – |
| CC(=O)OC(C)C(=O)N(C)c1sc(-c2cccnc2)nc1C (stereo not drawn) [Compound 335] | – | – | A (80-100) | A (80-100) |

| SMILES | pest or weed control at 200 ppm [1] | pest or weed control at 200 ppm [2] | BEMITA 200 ppm (Corrected % Control, rating) [1] | MYZUPE 200 ppm (Corrected % Control, rating) [2] |
| --- | --- | --- | --- | --- |
| CC(=O)OC(C)C(=O)N(C)c1sc(-c2cccnc2)nc1Cl (stereo not drawn) [Compound 336] | – | – | A (80-100) | A (80-100) |
| Cc1nc(-c2cccnc2)sc1NC(=O)C1CCN1C(=O)OC(C)(C)C (stereo not drawn) [Compound 337] | 80 to 100% | < 80% | – | – |
| CN(C(=O)C1CCN1C(=O)OC(C)(C)C)c1sc(-c2cccnc2)nc1Cl (stereo not drawn) [Compound 339] | – | – | A (80-100) | B (Less than 80) |
| Cc1nc(-c2cccnc2)sc1NC(=O)c1cscn1 [Compound 340] | < 80% | 80 to 100% | – | – |
| CN(C(=O)c1cscn1)c1sc(-c2cccnc2)nc1Cl [Compound 341] | – | – | B (Less than 80) | B (Less than 80) |
| Cc1nc(-c2cccnc2)sc1NC(=O)c1cnco1 [Compound 342] | < 80% | < 80% | – | – |
| Cc1nc(-c2cccnc2)sc1N(C)C(=O)c1cnco1 [Compound 343] | – | – | B (Less than 80) | A (80-100) |
| Cc1nc(-c2cccnc2)sc1NC(=O)c1ccns1 [Compound 344] | < 80% | < 80% | – | – |
| Cc1nc(-c2cccnc2)sc1N(C)C(=O)c1ccns1 [Compound 345] | – | – | A (80-100) | A (80-100) |
| CN(C(=O)c1ccns1)c1sc(-c2cccnc2)nc1Cl [Compound 346] | – | – | A (80-100) | B (Less than 80) |
| CC(=O)c1ccc(C(=O)Nc2sc(-c3cccnc3)nc2C)s1 [Compound 347] | < 80% | < 80% | – | – |
| CCN(C(=O)C(C)C[S+](C)[O-])c1sc(-c2cccnc2)nc1Cl (stereo not drawn) [Compound 348] | 80 to 100% | 80 to 100% | – | – |
| CC(=O)c1ccc(C(=O)N(C)c2sc(-c3cccnc3)nc2C)s1 [Compound 350] | < 80% | < 80% | – | – |
| CC(=O)c1ccc(C(=O)N(C)c2sc(-c3cccnc3)nc2Cl)s1 [Compound 351] | < 80% | < 80% | – | – |
| CC(C)(C)OC(=O)Nc1sc(-c2cncc(F)c2)nc1F [Compound 353, [4-fluoro-2-(5-fluoro-pyridin-3-yl)-thiazol-5-yl]-carbamic acid tert-butyl ester] | 80 to 100% | < 80% | – | – |
| CSCC(C)C(=O)N(C)c1sc(-c2cncc(F)c2)nc1Br (stereo not drawn) [Compound 354] | 80 to 100% | 80 to 100% | – | – |
| CSC(C)C(=O)N(C(=O)OC(C)(C)C)c1sc(-c2cccnc2)nc1C (stereo not drawn) [Compound 357] | 80 to 100% | 80 to 100% | – | – |
| CCSCC(=O)N(C)c1sc(-c2cccnc2)nc1C [Compound 358] | 80 to 100% | 80 to 100% | – | – |
| CSC(C)C(=O)N(C)c1sc(-c2cccnc2)nc1C (stereo not drawn) [Compound 360] | < 80% | 80 to 100% | – | – |
